According to US7671056B2, “Piperazine-piperidine antagonists and agonists of the 5-HT1A receptor” (Wyeth LLC, priority 2005, dated 2010):

Key:
[1] = target: T1, human 5-HT1A receptor (Homo sapiens, UniProt P08908); test: Radioligand binding with [3H]8-OH-DPAT on membranes of 5-HT1A.CHO cells; conditions: [3H]8-OH-DPAT 1.5 nM, 5-HT1A.CHO cell membranes; read-out: 5-HT1A Affinity Ki
T1 construct: expressed in transfected cells
T1 sequence (P08908 1-422): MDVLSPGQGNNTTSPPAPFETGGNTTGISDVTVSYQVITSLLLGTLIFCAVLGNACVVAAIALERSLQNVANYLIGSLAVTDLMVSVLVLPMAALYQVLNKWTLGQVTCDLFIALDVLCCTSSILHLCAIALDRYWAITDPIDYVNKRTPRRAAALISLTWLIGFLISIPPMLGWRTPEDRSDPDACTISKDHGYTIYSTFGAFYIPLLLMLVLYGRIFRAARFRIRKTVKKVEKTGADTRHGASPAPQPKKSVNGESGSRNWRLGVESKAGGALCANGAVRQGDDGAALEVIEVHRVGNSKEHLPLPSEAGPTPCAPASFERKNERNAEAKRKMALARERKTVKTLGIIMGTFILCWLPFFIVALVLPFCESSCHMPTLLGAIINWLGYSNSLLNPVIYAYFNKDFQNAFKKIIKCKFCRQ
Description: The PCR cloning of the human 5-HT1A receptor subtype from a human genomic library has been described previously (Chanda et al., Mol. Pharmacol., 43:516 (1993)). A stable Chinese hamster ovary cell line expressing the human 5-HT1A receptor subtype (5-HT1A.CHO cells) was employed throughout this study. Cells were maintained in DMEM supplemented with 10% fetal calf serum, non-essential amino acids and penicillin/streptomycin. Radioligand binding assays were performed as described in Dunlop, J. et al., J. Pharmacol. and Toxicol. Methods 40: 47-55 (1998), which is incorporated by reference. Cells were grown to 95-100% confluency as a monolayer before membranes were harvested for binding studies. Cells were gently scraped from the culture plates, transferred to centrifuge tubes, and washed twice by centrifugation (2000 rpm for 10 min., 4° C.) in buffer (50 mM Tris; pH 7.5). The resulting pellets were aliquoted and placed at −80° C. On the day of assay, the cells were thawed on ice, and resuspended in buffer. Studies were conducted using [^3H]8-OH-DPAT as the radioligand. The binding assay was performed in 96 well microtiter plates in a final total volume of 250 μL of buffer. Competition experiments were performed by using seven different concentrations of unlabelled drug and a final ligand concentration of 1.5 nM. Non-specific binding was determined in the presence of 10 μM 5HT. Saturation analysis was conducted by using [^3H]8-OH-DPAT at concentrations ranging from 0.3-30 nM. Following a 30 minute incubation at room temperature, the reaction was terminated by the addition of ice cold buffer and rapid filtration using a M-96 Brandel Cell Harvester (Gaithersburg, Md.) through a GF/B filter presoaked for 30 minutes in 0.5% polyethyleneimine. Table 1 provides Ki values for the tested compounds.

[2] = target: T1, human 5-HT1A receptor; test: cAMP measurements, agonist mode: inhibition of forskolin-induced increase in cAMP; format: cell-based; conditions: forskolin 1 uM, 5-HT1A.CHO cells
Description: The PCR cloning of the human 5-HT1A receptor subtype from a human genomic library has been described previously (Chanda et al., Mol. Pharmacol., 43:516 (1993)). A stable Chinese hamster ovary cell line expressing the human 5-HT1A receptor subtype (5-HT1A.CHO cells) was employed throughout this study. Cells were maintained in DMEM supplemented with 10% fetal calf serum, non-essential amino acids and penicillin/streptomycin.
Measurements were performed as described in Dunlop, J. et al., supra. Assays were performed by incubating the cells with DMEM containing 25 mM HEPES, 5 mM theophylline and 10 μM pargyline for a period of 20 minutes at 37° C. Functional activity was assessed by treating the cells with forskolin (1 uM final concentration) followed immediately by test compound (6 different concentrations) for an additional 10 minutes at 37° C. In separate experiments, 6 concentrations of antagonist were preincubated for 20 min prior to the addition of 10 nM 8-OH-DPAT and forskolin. The reaction was terminated by removal of the media and addition of 0.5 ml ice cold assay buffer. Plates were stored at −20° C. prior to assessment of cAMP formation by a cAMP SPA assay (Amersham). […]

[3] = test system: sexually experienced male rats (Sprague-Dawley rats); test: Animal model of SSRI-induced sexual dysfunction (non-contact penile erections); format: in vivo, rat
Description: The animal model is based on the finding that sexually experienced rats that are administered an SSRI, a drug used to treat certain conditions such as depression, display a reduction in the number of non-contact penile erections. SSRI treatment is associated with sexual dysfunction in human subjects. In general, the animal model exposes sexually experienced male rats (Sprague-Dawley rats) to female rats in estrous in a novel testing arena that is not the regular housing environment. The number of non-contact penile erections is assayed over a specified test period, e.g., 30 minutes (Sukoff, Rizzo, et al., 2006, Society for Neurosci. Abstr. 559.4; U.S. Application Ser. No. 60/682,3379, filed May 19, 2005). In the experiments described herein, animals were generally treated either with 0.9% saline (vehicle) or a drug (i.e., a compound of the invention) in the vehicle.
The ability of fluoxetine, an SSRI associated with sexual dysfunction in humans, to cause sexual dysfunction in the animal model was tested by examining a 10 mg/kg dose of fluoxetine or vehicle alone (0.9% saline), each administered intraperitoneally, once daily for 14 days, on the number of non-contact penile erections over a 30 minute trial period.
To examine the time course of the effects of a drug that causes sexual dysfunction, rats that were handled and tested as described above were treated acutely: rats were treated with vehicle for 6 days, and on the test day (day 7) instead of vehicle, the animals received a single dose of fluoxetine in vehicle (i.p.). For a subchronic (7 day) study, fluoxetine was administered each day for 7 days and the animals were evaluated on test day 7. For the chronic 14 day study, fluoxetine was administered each day for 14 days and the animals were tested on day 14. Each fluoxetine dose was 10 mg/kg in vehicle and was delivered i.p. on each of the test days as described above. The testing session for each section of the study was begun immediately following compound administration and the behavior observed for 30 minutes immediately following the drug administration. […]

[4] = test system: male Sprague-Dawley rats; test: In vivo microdialysis of frontal cortex 5-HT (enhancement of SSRI activity); parameters: species or system rat; conditions: acute fluoxetine alone, 30 mg/kg s.c.
Description: The ability of the compounds of this invention to reduce time for onset of action of the representative SSRI fluoxetine was assessed using in vivo microdialysis. Using 2-3% halothane anesthesia (Fluothane; Zeneca, Cheshire, UK), male Sprague-Dawley rats (280-350 g; Charles River, Wilmington, Mass.) were secured in a stereotaxic frame with ear and incisor bars (David Kopf, Tujunga, Calif.) while a microdialysis guide cannula (CMA/12, CMA Microdialysis, Sweden) was directed above the dorsal lateral frontal cortex (A/P+3.2 mm, M/L−3.5 mm, D/L−1.3 mm). Coordinates were taken with a flat skull using the rat brain atlas of Paxinos and Watson (1986). […]
For in vivo neurochemical experiments, a microdialysis probe (CMA/12; active membrane length 2 mm; OD 0.5 mm; 20 kD cut-off) was pre-washed with artificial CSF (aCSF; 125 mM NaCl, 3 mM KCl, 0.75 mM MgSO4 and 1.2 mM CaCl2, pH 7.4) according to the manufacturers specifications. […] Subsequent microdialysis samples were collected for 3 h post-injection and analyzed for 5-HT content by high performance liquid chromatography (HPLC). […] Subsequent sample values were expressed as a percent change from this preinjection baseline value (or % change from baseline). Neurochemical data, excluding preinjection values, were analyzed by a two-way analysis of variance (ANOVA) with repeated measures (time). […]

Compound	Ki [1]	EC50 [2]	sexual function (number of non-contact penile erections over 30 minutes) ([3]; 10 mg/kg i.p. each day for 7 days (sub-chronic))	sexual function (number of non-contact penile erections over 30 minutes) ([3]; 10 mg/kg i.p. once daily for 14 days (chronic), vs vehicle)	sexual function (number of non-contact penile erections over 30 minutes) ([3]; 10 mg/kg i.p. once daily for 14 days (chronic), vs vehicle, listed as Fluoxetine)	frontal cortex serotonin levels [4]
COc1cc(N2CCN(C3CCN(c4cccc5cc(C(F)(F)F)cnc45)CC3)CC2)c2ncccc2c1 [L, 8-{4-[4-(6-Methoxyquinolin-8-yl)piperazin-1-yl]piperidin-1-yl}-3-(trifluoromethyl)quinoline]	1.2 nM	29.5 nM	–	–	–	–
CNCCC(Oc1ccc(C(F)(F)F)cc1)c1ccccc1 (stereo not drawn) [fluoxetine]	–	–	significant increase in sexual dysfunction	significant increase in sexual dysfunction	decrease in sexual function	did not increase serotonin levels
